Data from patent US20070166367A1, “Adept or gdept producing acetaldehyde” (priority 2004, published 2007).
Where two headings read alike, the source gives them in different places.

How the values were obtained:
[1] = tested on: Ad-ADH CMT-64 cells; assay: Ad-ADH ethanol cytotoxicity assay; type: cell-based; details: for numbers of cells: seeded at 5×10^5 on Day 0, day 2, FIG. 4; for total cell number as % of the starting number: ethanol
Method: (§1) Cells were placed into 6 well plates at 5×10^6 per well. After overnight incubation, the cells were washed twice in PBS then incubated with virus (Hela MOI 100, CMT-64 MOI 1000) at 37° C. for 1 hr in 1 ml of serum free media. Following addition of 3 mls more of tissue culture medium the cells were incubated overnight, assayed for ADH activity and used for experiments as below.

[2] = tested on: Daudi lymphoma cells; assay: acetaldehyde combined with Cisplatin in vitro; type: cell-based
Source text: The results shown are the number of live cells at each time point shown as a % of the number of cells at the start of the expt (ie 100% at time 0 hrs).

[3] = tested on: CMT-64; assay: in vitro acetaldehyde and cisplatin toxicity assay; type: cell-based; details: FIG. 2
Method: (§2) Standard tissue culture techniques were used to maintain Hela, Daudi, Jurkat, CMT-64 cells in flasks in DMEM+10% FCS in a 37° C. incubator.
(§3) Cell lines subcloned into 25-cm^2 flasks and incubated in media containing dilutions of acetaldehyde, cisplatin or both. Flasks remained sealed during incubation and the media and acetaldehyde/cisplatin were replaced daily. Viable cell counts were made using Trypan blue exclusion and a standard haemocytometer.

[4] = tested on: Daudi; assay: in vitro acetaldehyde and cisplatin toxicity assay; type: cell-based; details: higher cell density, 3 days exposure, FIG. 2
Method: as §2, §3

[5] = tested on: Ad-ADH Hela cells; assay: Ad-ADH ethanol cytotoxicity assay; type: cell-based; details: seeded at 5×10^5 on Day 0, day 2, FIG. 4
Method: as §1

[6] = tested on: CMT-64 cells; details: ethanol IP for several days, particularly on Day 6, FIG. 5
Method: CMT-64 cells are injected s-c into mice and tumour growth allowed to proceed.
Virus described above is introduced into the CMT-64 cells.
Alcohol (ethanol) is injected IP for several days.
Tumour dimensions are monitored thereafter.

[7] = tested on: Ad-ADH CMT-64 cells
Method: (§4) The animal experiment was approved by the Cancer Research UK animal use and safety committee and the Home Office before initiation. On the day prior to injection, 6×10^6 CMT-64 cells were transduced with the Ad-ADH virus in vitro, then on Day 0 adult C57B/6 mice received s-c injections in the flank of 5×10^5 Ad-ADH CMT-64 cells (groups 1 and 2) or mock infected CMT-64 cells (groups 3 and 4) suspended in 100 uL of PBS. On days 0-4 groups 1 and 3 were injected with 500 ul of 12% ethanol (2 g/kg) solution IP and groups 2 and 4 received 500 uL of water IP, there were 6 mice in each group. Tumour volume was estimated twice weekly using the formula: volume=(length×width×width)×(3.142/6).
(§5) Tumour size was measure on Days 6, 10 and 13; the results are shown as the mean and SD from 6 mice per group.

[8] = tested on: wild type CMT-64 cells; details: ethanol 2 g/kg IP days 0-4 (group 3)
Method: as §4, §5

[9] = chronic exposure to ethanol (4%), +12 weeks; cited from earlier work
[10] = in vivo; cited from earlier work
[11] = cited from earlier work

Cc1cn[nH]c1 [4-MP, 4-methylpyrazole]
effect on ethanol mediated growth reduction ([1]; 4-MP 10 uMol): blocking of this effect

N.N.[Cl][Pt][Cl] [cisplatin, Cisplatin]
number of live cells as a % of the number of cells at the start ([2]; Cisplatin at 30 μM, 6 hr): 147% | number of live cells as a % of the number of cells at the start ([2]; Cisplatin at 30 μM, 18 hr): 122% | number of live cells as a % of the number of cells at the start ([2]; Cisplatin at 30 μM, 21 hr): 76% | number of live cells as a % of the number of cells at the start ([2]; Cisplatin at 30 μM, 25 hr): 82% | number of live cells as a % of the number of cells at the start ([2]; Cisplatin at 30 μM, 42 hr): 36% | number of live cells as a % of the number of cells at the start ([2]; repeated experiment, +25 hours): 63% | cell number as % of starting number [3]: 80% | cell number as % of starting number [4]: 21% | numbers of cells [1]: 3.75×10^5 | numbers of cells [5]: 3.2×10^5

CCO [ethanol]
cell number as % of non-ethanol exposed controls ([1]; 2 days ethanol exposure): 30% | number of cells ([1]; ethanol 20 mM, day 2, FIG. 3): 3.7×10^5 | total cell number as % of the starting number ([1]; day 2): 74% | total cell number as % of the starting number ([1]; day 4): 36% | number of cells ([1]; extended ethanol exposure, day 4): 1.8×10^5 | numbers of cells [1]: 3.5×10^5 | numbers of cells [5]: 6.2×10^5 | tumour growth [6]: significant inhibition of growth | tumour size of one mouse ([7]; Day 10 and Day 23, no further increase): 0.058 cm3 | median size as % of the water treated controls ([7]; day 6): 30% | median size as % of the water treated controls ([7]; day 13): 42% | mean size of the tumours ([7]; ethanol 2 g/kg IP days 0-4, day 6): 0.036 cm^3 | mean size of the tumours ([7]; ethanol 2 g/kg IP days 0-4, day 13): 0.18 cm3 | mean tumour volumes ([8]; day 6): 0.1645 cm^3 | mean tumour volumes ([8]; day 13): 0.514 cm^3 | cardiac toxicity [9]: severe myocardial damage | well tolerated levels [10]: 500 to 2500 mg/L | time until blood ethanol levels fell below the limit of detection ([11]; IP ethanol injections of 3.7-3.8 g/kg): 6 to 7 h | rate of ethanol metabolism in mice relative to humans ([11]; mouse, in vivo): 5 times
